Key:
Arabidopsis plants = experiment: Progressive drought experiment: growth, water consumption, WUE; format: in vivo, Arabidopsis thaliana
Protocol: The progressive drought experiment was performed as described ([Yang et al., 2016]). Briefly, 18-day-old Arabidopsis plantlets grown under well-watered and short-day conditions (8 h light with 150 µmol m^-2 s^-1 PAR, 22°C, 50% relative humidity, and 16 h dark with 17°C, 60% relative humidity) were transferred to 0.2 L pots loaded with water-saturated soil (33.4 ± 0.4 g dry soil with 148 ± 2 g water). At the onset of the progressive drought (day 0), water was withheld, and a sealed soil surface prevented evaporation. A slowly increasing water deficit was achieved by transpirational water loss from plants. The progressive drought experiment lasted for eight weeks until mock-treated plants had consumed all the plant-usable water. […] For measuring growth and water consumption, leaf rosettes were regularly photographed, and the pots were weighed. The projected leaf area of Arabidopsis rosettes was analyzed by using Photoshop Elements software (Adobe, San Jose, USA). The consumed water was calculated as the difference in pot weight between day 0 and the designated days. The retained water was expressed as the difference between the pot weight at the end of the drought (day 57) and the weight of the loaded dry soil. Above-ground material was harvested at day 57, and the biomass was determined after drying the material for three days at 60°C to achieve constant weight. WUE was calculated as the ratio of above-ground dry biomass to consumed water. The data for the mock- and ABA-treated plants in the progressive drought experiment were already published ([Yang et al., 2019]).

RCAR1/PYL9-ABI2 = experiment: Yeast ABA signal pathway LUC reporter, RCAR1-ABI2; format: cell-based, Arabidopsis thaliana
Protocol: The yeast cultivation and the life luciferase assay were performed as described ([Ruschhaupt et al., 2019]). Briefly, the reporter yeast expressing an ABA-dependent luciferase gene (LUC) was transformed with different combinations of ABA signaling components as indicated. Golden gate cloning ([Binder et al., 2014]) was used to construct pYEAST_LII_5‐6_CEN_URA vector with TDH3 promoter and TDH1 terminator (tTDH1), pYEAST_LII_1‐2_CEN_LEU vector with GK1 promoter and tTDH1, and pYEAST_LII_3‐4_CEN_TRP with the GAL1 promoter (pGAL1) and tTDH1 to express RCARs, PP2Cs, and OST1 (SnRK2.6), respectively ([Ruschhaupt et al., 2019]). […]
Colonies of freshly transformed cells were inoculated in 0.5 mL supplemented synthetic dextrose (SD) medium and incubated at 30°C in a gyratory shaker (Thermoshake-THO500, Gerhardt, Königswinter, Germany) at 200 rpm for 16-18 h. […] Light emission of yeasts was detected in a HIDEX plate luminometer (HIDEX, Turku, Finland) after injection of 100 µL freshly prepared luciferin substrate (1 mM D-luciferin, Promega) provided in 100 mM citric acid, pH 3 ([Leskinen et al., 2003]) for 5 s and was corrected for background. The LUC activity was normalized to the cell density (OD600) measured in 96-well flat plates (Sarstedt, Nümbrecht, Germany). […]

RCAR8-ABI2 = experiment: In vitro phosphatase assay, ABI2 with RCAR8; format: biochemical, Arabidopsis thaliana; details: 100 nM ABI2, 200 nM RCAR8
Protocol: (§1) Expression, purification, and analysis of RCAR and PP2C proteins were performed essentially as described ([Ruschhaupt et al., 2019]). Briefly, the ABA receptors RCAR1, RACR8, and RCAR11 were expressed with an aminoterminal histidine tag using the pSEVA431_LII_6xHIS::RCAR1/RCAR8/RCAR11. ABA coreceptors were expressed as histidine-tagged fusions with the maltose-binding protein using the pSEVA431_LII_6xHIS::MBP::ABI2/HAB1. All constructs were transformed and expressed in Escherichia coli strain BL21 and purified to homogeneity according to supplier’s instruction (GE Healthcare, Chicago, USA). The receptor assay was performed with 100 nM PP2C and a two-fold molar excess of RCAR. Values are means ± SD of three replicates. […] The maximum inhibition was set to 100% in the figures. The phosphatase activity was measured using 4-methylumbelliferyl-phosphate as a substrate ([Meinhard and Grill, 2001]). The increase in fluorescence was recorded over 25 min with excitation and emission wavelengths at 360 and 460 nm, respectively, using a Synergy 2 plate reader (Bio-Tec, Winooski, USA).

RCAR8/PYL5-ABI2 = test system: T1, RCAR8/PYL5-ABI2; experiment: Yeast ABA signal pathway LUC reporter, RCAR8-ABI2; format: cell-based, Arabidopsis thaliana
T1 construct: expressed in transfected cells; host or cells: yeast (LUC reporter strain)
Protocol: (§2) The yeast cultivation and the life luciferase assay were performed as described ([Ruschhaupt et al., 2019]). Briefly, the reporter yeast expressing an ABA-dependent luciferase gene (LUC) was transformed with different combinations of ABA signaling components as indicated. Golden gate cloning ([Binder et al., 2014]) was used to construct pYEAST_LII_5‐6_CEN_URA vector with TDH3 promoter and TDH1 terminator (tTDH1), pYEAST_LII_1‐2_CEN_LEU vector with GK1 promoter and tTDH1, and pYEAST_LII_3‐4_CEN_TRP with the GAL1 promoter (pGAL1) and tTDH1 to express RCARs, PP2Cs, and OST1 (SnRK2.6), respectively ([Ruschhaupt et al., 2019]). The expression of ABF2 in yeast relies on a modified pGREG503 vector, in which pGAL1 ([Jansen et al., 2005]) was replaced by the ADH1 promoter.
(§3) Colonies of freshly transformed cells were inoculated in 0.5 mL supplemented synthetic dextrose (SD) medium and incubated at 30°C in a gyratory shaker (Thermoshake-THO500, Gerhardt, Königswinter, Germany) at 200 rpm for 16-18 h. After overnight growth, the cells were harvested and washed in SD medium followed by inoculation in SD medium containing 2% galactose for induction of SnRK2 kinases under the control of the GAL1 promoter and supplementation with ligands at indicated concentrations, to an OD600 of 0.2 in flat-bottom 96-well plates (CytoOne, Starlab, Hamburg, Germany). Yeast cultures were incubated at 30°C and 200 rpm for 16-18 h before determination of LUC activity and cell density. Light emission of yeasts was detected in a HIDEX plate luminometer (HIDEX, Turku, Finland) after injection of 100 µL freshly prepared luciferin substrate (1 mM D-luciferin, Promega) provided in 100 mM citric acid, pH 3 ([Leskinen et al., 2003]) for 5 s and was corrected for background. The LUC activity was normalized to the cell density (OD600) measured in 96-well flat plates (Sarstedt, Nümbrecht, Germany). LUC activity is given as the ratio of light emission to OD600 in counts per second.

RCAR11-ABI2 [1] = experiment: Yeast ABA signal pathway LUC reporter, RCAR11-ABI2; format: cell-based, Arabidopsis thaliana
Protocol: as §2, §3

RCAR11-ABI2 [2] = test system: T2, RCAR11-ABI2; experiment: In vitro phosphatase assay, ABI2 with RCAR11; format: biochemical, Arabidopsis thaliana; details: 100 nM ABI2, 200 nM RCAR11
T2 construct: 6xHis (N); made in house; host or cells: Escherichia coli BL21
Protocol: as §1

CCC(=C/C(=O)O)/C=C/C(O)(C(C)C)C1(C#N)CC1 (stereo not drawn) [CCP2]
WUE increase (Arabidopsis plants; 30 µM solute concentration): ~50%
Growth of leaf rosettes compared to mock (Arabidopsis plants; 30 µM, three administrations): growth reduction
Plant-usable soil water transpired (Arabidopsis plants; end of drought experiment): ~70%
WUE improvement compared to controls (Arabidopsis plants; end of drought experiment): up to 50%
Restriction of water consumption (Arabidopsis plants; single administration, for two weeks): approximately 30%
Higher exogenous concentration required for reporter expression comparable to 1 µM ABA (RCAR1/PYL9-ABI2): > 30 x
IC50 relative to ABA (fold higher) (RCAR8-ABI2): ~30 fold
Reporter induction relative to ABA (RCAR8/PYL5-ABI2; 1 µM exogenous ligand): no significant reporter regulation
Higher level required for induction value comparable to 1 µM ABA (RCAR8/PYL5-ABI2; yeast, RCAR8-ABI2): > 30 x
ABA-agonistic activity in yeast LUC reporter (RCAR11-ABI2 [1]; 30 µM, not esterase-treated): revealed an ABA-agonistic activity
Activation of the ABA response compared to ABA (RCAR11-ABI2 [1]; dose-dependent, 0.1-30 µM): comparable activity to ABA
Inhibition of ABI2 compared to ABA (RCAR11-ABI2 [2]): comparable to ABA

Reference: publication PMC9894685, “Abscisic acid agonists suitable for optimizing plant water use” (Frontiers in Plant Science, 2023)
